Experimental findings from patent publication US20160298082A1, “METHOD FOR OBTAINING IMMUNO-STIMULATORY DENDRITIC CELLS” (TRANSIMMUNE AG, priority 2013, published 2016) are described below.

Data set [1] has as its system lymphocytes. The experiment in a line: Apoptosis of lymphocytes (Annexin-V/7-AAD). The format is cell-based, human.
Data set [2] relates to GILZ. The experiment in a line: GILZ mRNA expression in CD11c+ MoDC (quantitative real-time PCR). The format is cell-based, human. The conditions noted are these: relative to untreated MoDC cultured alone; 24 hr (FIG. 13B); dex 100 nM; PUVA 100 ng/mL, 1 J/cm^2. On the procedure:
Monocytes were cultured at a density of 5×10^6 cells/mL in 6- and 12-well polystyrene tissue culture plates at 37° C. and 5% CO2 in RPMI-1640 (Gibco) supplemented with heat-inactivated 15% AB serum (Gemini) and 1% penicillin/streptomycin (now referred to as complete media). 800 IU/mL recombinant human GM-CSF (R&D Systems) and 1000 IU/mL recombinant human IL-4 (R&D Systems) were added to cultures for 36 hr to induce monocyte to DC differentiation as described.
Non-adherent cells (purity: 66.0±4.5% CD3^+) removed during plastic adherence will now be generally referred to as lymphocytes. Lymphocytes were treated with 8-MOP (100 ng/mL) and UVA (1 J/cm^2), washed with PBS, and co-cultured in complete media at 37° C. and 5% CO2 with either PUVA-treated or untreated-MoDC in a ratio of 5 or 10 lymphocytes to 1 MoDC. […] 24 hr after LPS stimulation, cells were harvested for RNA isolation and immunophenotyping, and supernatants were collected for cytokine quantification.
RNA was isolated from CD11c^+ MoDC using QIAShredder columns (QIAGEN) and the RNeasy Mini Kit (QIAGEN) with on-column Dnase I treatment (QIAGEN). RNA yield and purity were assessed using a NanoDrop ND-1000 spectrophotometer. cDNA was obtained using the High Capacity cDNA Reverse Transcription Kit (Applied Biosystems) in a 96-well thermocycler (MJ Research PTC-200). […]

Data set [3] has as its system GILZ. The description is as above. Format: cell-based, human.
Data set [4] has as its system lymphocytes. Kind of data set: Apoptosis of ECP-processed lymphocytes after overnight incubation. The format is cell-based, human. The conditions noted are these: UVA-activated 8-MOP; APO2-PE, Trypan blue and/or annexin/propidium iodide.
Data set [5] relates to MoDC. The experiment in a line: IL-10 and IL-12p70 ELISA in siRNA experiments. The format is cell-based, human. The conditions noted are these: siRNA experiment, not transfected. The procedure: Silencer select pre-designed and validated GILZ siRNA (Invitrogen), with off-target prediction algorithms, was used to knockdown GILZ expression. Mo-DC were transfected using Lipofectamine RNAiMAX Reagent (Invitrogen). RNAi duplex and lipofectamine reagent were incubated together for 20 min, then added to MoDC cultures and incubated for 2 hr at 37° C. and 5% CO2. Transfected MoDC were treated in an identical fashion as described for the MoDC/lymphocyte co-cultures. MoDC were also transfected with scramble siRNA.
(§1) Culture supernatants were analyzed in a multiplex format utilizing magnetic beads to IL-6, IL-8, IL-10, IL-12p70, IFN-γ, TNF-α, RANTES, MCP-1, and MIP-1β (BioRad Laboratories). For siRNA experiments, supernatants were analyzed with enzyme-linked immunosorbent assay (ELISA) kits for IL-10 (R&D Systems) and IL-12p70 (Enzo Life Science). All samples and standards were run in duplicate and analyzed using the LUMINEX 200 (LUMINEX), or the BioTek EL800 (BioTek).
In general terms: An ELISA detects its analyte on a solid surface through an enzyme-linked reagent.

Data set [6] concerns MoDC. Kind of data set: Cytokine quantification in MoDC supernatants after LPS stimulation (magnetic bead multiplex). The format is cell-based, human. On the procedure: Lymphocytes were treated with 8-MOP (100 ng/mL) and UVA (1 J/cm^2), washed with PBS, and co-cultured in complete media at 37° C. and 5% CO2 with either PUVA-treated or untreated-MoDC in a ratio of 5 or 10 lymphocytes to 1 MoDC. MoDC treated for 24 hr with 100 nM dexamethasone (Sigma) served as the positive control group. After 24 hr, cells were harvested and MoDC were re-purified. […] CD11c^+ MoDC were re-plated at 0.5-1.0×10^6 cells/mL in complete media and stimulated with 100 ng/mL LPS (Sigma). 24 hr after LPS stimulation, cells were harvested for RNA isolation and immunophenotyping, and supernatants were collected for cytokine quantification.
as §1

In another data set the test system is immature MoDC. The settings on record: 24 hr.
The next data set relates to CD11c+ cells. Kind of data set: Apoptosis / cell death of CD11c+ MoDC (Annexin-V/7-AAD). Format: cell-based, human. The procedure:
Immunofluorescence was analyzed using a FACSCalibur L (BD Biosciences) within 2 hr of fixation with 2% paraformaldehyde.

A further data set relates to monocytes. The experiment in a line: Static co-culture of monocytes with platelets. Format: cell-based, human. The settings on record: platelets activated with thrombin; no flow; 18 hours. On the procedure:
Experiments involving co-cultures of monocytes with additional platelets were performed as described in the Overnight Culture section, with a few necessary modifications. Following Ficoll-Hypaque separation, mononuclear cells were resuspended in 30% AB serum/RMPI to a final concentration of 10×10^6 cells/ml, of which 1 ml was allocated to each well of a 16-well plate. An additional 1 ml of platelets (suspended in RPMI, at 2× the desired final concentration) or RPMI without platelets was then added to each well. To activate platelets, 500 μl containing 2 units of thrombin was added to half the wells, and 500 μl of RPMI was added to the others to balance the volume. Cells were then incubated as described previously.

For a further data set, the system named is P-selectin. Kind of data set: Surface expression of P-selectin on platelets (platelet activation). Format: cell-based, human. The conditions noted are these: platelets activated with thrombin (positive control). An excerpt: Monoclonal antibodies for immunophenotyping included CD14 (LPS receptor; monocytes), CD11c (integrin subunit; monocytes and DC), HLA-DR (class II MHC molecule), CD83 (DC marker), CD62p (P-selectin; activated platelets), and CD61 (integrin subunit; platelets). Antibodies were obtained from Beckman Coulter (CD14, CD11c, HLADR, CD83) or Sigma (CD62p, CD61) and used at their pre-determined optimal dilutions. Background staining was established with appropriate isotype controls, and immunofluorescence was analyzed using a FC500 flow cytometer (Beckman Coulter). Two-color membrane staining was performed by adding the pre-determined optimal concentrations of both antibodies directly conjugated to FITC or PE and incubating for 20 min at 4° C., followed by washing to remove unbound antibodies. Combined membrane and cytoplasmic staining was performed following manufacturer's instructions for cell fixation and permeabilization (Intraprep kit, Beckman Coulter).
Upon encountering stimuli such as damaged endothelium or thrombin, platelets become activated and almost instantaneously translocate these intracellular proteins to the plasma membrane (Kaplan et al., 1979, see references). […] To test this hypothesis, surface expression of P-selectin, a well-known marker of platelet activation, was assessed before and after adhesion. […]

Where [7] appears, read: 100 ng/mL and 1 J/cm^2, 24 hr after treatment.
Where [8] appears, read: 24 hr after LPS stimulation, vs untreated MoDC.
[9] abbreviates: 8-MOP 0 to 200 ng/mL, UVA 1 or 2 J/cm2.
Setting [10] is: product of 8-MOP and UVA exceeded 100.

“Also recorded” adds a separate entry of the source.

With `COc1c2occc2cc2ccc(=O)oc12` [8-MOP, 8-methoxypsoralen], in the data set on lymphocytes [1] (setting [7]), the Early apoptotic lymphocytes came to 44.3% and the Late apoptotic lymphocytes is listed as 33.7%. Besides, the “Time at which lymphocytes display Annexin-V after treatment” value in the data set on lymphocytes [1] (1 J/cm^2 and 100 ng/mL (data not shown)) was at most 2 h. Besides, the “Lymphocytes Annexin-V+” value in the data set with lymphocytes [1] (24 hr after treatment) is 64.3±3.2%. Further, the “GILZ up-regulation, MoDC cultured alone” value in the data set on GILZ [2] is listed as 2.78 fold. Moreover, the GILZ expression entry in the data set on GILZ [3] (0.5 J/cm^2 UVA) was “no effect on GILZ expression until the 8-MOP concentration reached 200 ng/mL”. For the same compound, the GILZ up-regulation in the data set with GILZ [3] (1 J/cm^2 UVA, 100 ng/mL 8-MOP, 24 hr) was found to be 2.9 fold. The compound further came in with a GILZ up-regulation in the data set on GILZ [3] (1 J/cm^2 UVA, 200 ng/mL 8-MOP, 24 hr) of 4.4 fold. Also, the “8-MOP concentration at which dose-dependent GILZ up-regulation starts” value in the data set on GILZ [3] (2 J/cm^2 UVA) is 50 ng/mL. In the data set with GILZ [3] (8-MOP alone, without UVA, 24 hr), the GILZ expression result was “did not effect GILZ expression”. Further, in the data set with GILZ [3] (8-MOP and UVA light), the “Time GILZ remains significantly elevated” value was determined as 72 h and the “Time of peak GILZ induction after treatment” value turned out to be 24 h. Besides, the “GILZ expression in immature MoDC after 8-MOP plus UVA light (qualitative)” value in the data set on GILZ [3] (24 hr after PUVA) is “up-regulates GILZ”. Moreover, the GILZ expression increase in the data set with GILZ [3] (combination of 8-MOP and UVA light, relative to untreated MoDC (FIG. 10E)) was determined as 5.5 fold. The GILZ up-regulation in the data set with GILZ [3] (product of 8-MOP and UVA = 100) is recorded as 3 fold. This compound also gave a GILZ up-regulation in the data set with GILZ [3] (product of 8-MOP and UVA = 200) of 4.8 fold. This compound also yielded a GILZ up-regulation in the data set on GILZ [3] (product of 8-MOP and UVA = 400) of 8.6 fold. Further, the “ECP-processed lymphocytes apoptotic after overnight incubation” value in the data set with lymphocytes [4] is 99%. For the same compound, in the data set on MoDC [5], the “IL-10 to IL-12p70 ratio, non-transfected MoDC cultured alone” value is 8.4 and the “IL-10 to IL-12p70 ratio, non-transfected PUVA-DC exposed to ApoL” value worked out at 28.4. In the data set with MoDC [6] (setting [8]), the IL-10 production entry is reported as “increased production of IL-10”; the “Production of pro-inflammatory cytokines and chemokines” value is “decreased production of all pro-inflammatory cytokines and chemokines tested, except TNF-α and IFN-γ”. Further, in the data set on MoDC [6] (after LPS, untreated MoDC 6.7), the “Ratio of IL-10 to IL-12p70, MoDC cultured alone” value is on record as 38.7 and the “Ratio of IL-10 to IL-12p70, PUVA-DC exposed to ApoL” value is 114.9. Further, in the data set on immature MoDC (setting [9]), the “Membrane CD83, CD80 and CD86 expression (qualitative)” value is reported as “down-regulates”; the “Membrane HLA-DR expression (qualitative)” value is on record as “up-regulates”. Besides, in the data set on immature MoDC (setting [10]), the “Increase of HLA-DR expression” value came to 38%, the “Reduction of CD80 expression” value is listed as 30%, the “Reduction of CD83 expression” value is on record as 31% and the “Reduction of CD86 expression” value is 54%. The “Late apoptotic CD11c+ cells” value in the data set on CD11c+ cells (1 J/cm^2, all doses of 8-MOP tested, 24 hr) is “less than 13%”. In the data set on CD11c+ cells (2 J/cm^2, all doses of 8-MOP tested, 24 hr), the “Late apoptotic CD11c+ cells” value is reported as “less than 16%”. Also, in the data set on CD11c+ cells (2 J/cm^2 and 200 ng/mL, 24 hr), the “Early apoptotic CD11c+ cells compared to untreated MoDC” value is reported as “increase”. For the same compound, in the data set on CD11c+ cells (4 J/cm^2 UVA (data not shown)), the Cell death result is on record as “high levels of non-specific cell death”.
Turning to thrombin, in the data set on monocytes, the “DC differentiation of monocytes under static conditions” value was “neither activated nor non-activated platelets were capable of inducting DC differentiation; also recorded: did not cause a discernible difference”. Moreover, in the data set with P-selectin, the “P-selectin mean fluorescence intensity (MFI)” value was 108.3±23 and the “Platelets P-selectin positive” value worked out at 71±18%.
